Source: patent US10450300B2, “Wnt signaling pathway inhibitors and therapeutic applications thereof” (Suzhou Yunxuan Yiyao Keji Youxian Gongsi, priority 2015, dated 2019)

System: Wnt pathway
Experiment: Wnt pathway Super-top flash (STF) reporter gene assay (primary assay)
Type: cell-based
Conditions: HEK293 STF cells co-cultured 1:1 with L Wnt3A cells; 48 h incubation; inhibition of luminescence signaling
Description: The primary assay is based on Wnt pathway Super-top flash (STF) reporter gene assay:
HEK293 STF stable clones (HEK293 cells stably transfected with “Super-Top Flash” TCF-luciferase reporter plasmid) were kept in complete culture medium (DMEM with 4 mM L-Gln, 1.5 g/L sodium bicarbonate and 4.5 g/L glucose containing 6 μg/mL Blasticidin and 10% FBS). L Wnt3A cells (CRL-2647, ATCC) were kept in DMEM (Gibico) containing 10% FBS (Hyclone). HEK293 STF and L Wnt3A cells were harvested when 90% confluence and cell suspension was mixed with a fixed ratio of 1:1 (HEK293 STF: L Wnt3A). 100 μL/well of mixed cells suspension was added to the 96-well-plate with final cell concentration of 12,000 cells/well and then cultured for an additional 24 hours before adding compounds.
Compounds were diluted in DMSO in sequence and then diluted with DMEM medium. 20 μL medium containing compound was added to the cells according to the pre-setting dose. Cell plates were incubated at 37° C. for an additional 48 hours.
50 μL luciferase solution (Bright-Glo, Promega) was added to each well […] the 48 h incubation. The plates were incubated at room temperature for 5 min under gentle shaking. Luminescence signaling was measured with a plate reader (PHERAstar FS, BMG). The IC50 (potency) of compounds was calculated based on the inhibition of luminescence signaling.

Structure (SMILES)	IC50 [nM]
Cc1cc(-c2ccc(CNc3cc(-c4ccc5ccccc5c4)nc(N4CCCC4)n3)cc2)ccn1 [Compound A-141]	3000
CCNc1nc(NCc2ccc(-c3ccnc(C)c3)cc2)cc(-c2ccc3ccccc3c2)n1 [Compound A-142]	3000
Cc1cc(-c2ccc(CNc3ncnc(-c4ccc5ccccc5c4)c3C)cc2)ccn1 [Compound A-143]	2000
Cc1cc(-c2ccc(CNc3ncnc(-c4ccc5ccccc5c4)c3C#N)cc2)ccn1 [Compound A-144]	40
Cc1cc(-c2ccc(CNc3cc(N4CCc5ccccc5C4=O)ncn3)cc2)ccn1 [Compound A-145]	1130
c1ccc2cc(-c3cc(NCc4ccc(-c5ccncc5)cc4)ncn3)ccc2c1 [Compound A-146]	68
Cc1cc(-c2ccc(C(C)Nc3cc(-c4ccc5ccccc5c4)ncn3)cc2)ccn1 (centres unmarked) [Compound A-147]	40
Cc1cc(-c2ccc(CNc3cc(-c4ccc5cnccc5c4)ncn3)cc2)ccn1 [Compound A-148]	10
Cc1cc(-c2ccc(CNc3cccc(-c4ccc5ccccc5c4)c3)cc2)ccn1 [Compound A-149]	603
Cc1cc(-c2ccc(CNc3cccc(-c4ccc5ccccc5c4)n3)cc2)ccn1 [Compound A-150]	250
Cc1cc(-c2ccc(CNc3ccnc(-c4ccc5ccccc5c4)n3)cc2)ccn1 [Compound A-151]	2000
Cc1cc(-c2ccc(CNc3nccc(-c4ccc5ccccc5c4)n3)cc2)ccn1 [Compound A-152]	4.9
Cc1cc(-c2ccc(CNc3cc(-c4ccc5ccccc5c4)nc(N)n3)cc2)ccn1 [Compound A-153]	3000
Cc1cc(-c2ccc(CNc3nccc(-c4ccc5ncccc5c4)n3)cc2)ccn1 [Compound A-154]	1.2
Cc1cc(-c2ccc(CNc3nccc(N4CCc5ccccc5C4)n3)cc2)ccn1 [Compound A-155]	229
Cc1cc(-c2ccc(CNc3nccc(N4CCc5ncccc5C4)n3)cc2)ccn1 [Compound A-156]	12
Cc1cc(-c2ccc(CNc3ccnc(-c4ccc5ncccc5c4)n3)cc2)ccn1 [Compound A-157]	3000
Cc1cc(-c2ccc(CNc3ccnc(N4CCc5ncccc5C4)n3)cc2)ccn1 [Compound A-158]	3000
Cc1cc(-c2ccc(CNc3nccc(-c4ccc5ncncc5c4)n3)cc2)ccn1 [Compound A-159]	17
Cc1cc(-c2ccc(CNc3ncnc(-c4ccc5ncccc5c4)n3)cc2)ccn1 [Compound A-160]	6.7

Structure (SMILES)	IC50 [nM]
Cc1cc(-c2ccc(CNc3nc(N4CCc5ncccc5C4)ncc3F)cc2)ccn1 [Compound A-161]	3000
Cc1cc(-c2ccc(CNc3ccnc(-c4ccc5ccccc5c4)c3)cc2)ccn1 [Compound A-164]	3000
Cc1cc(-c2ccc(CNc3cc(-c4ccc5ncccc5c4)ccn3)cc2)ccn1 [Compound A-166]	3.6
Cc1cc(-c2ccc(CNc3ncnc(-c4ccc5ccccc5c4)n3)cc2)ccn1 [Compound A-167]	120
Cc1cc(-c2ncc(CNc3nccc(-c4ccc5ncccc5c4)n3)cc2F)ccn1 [Compound A-168]	0.85
Cc1cc(-c2ccc(CNc3nccc(-c4ccc5ncccc5c4)n3)cn2)ccn1 [Compound A-169]	4.9
Cc1cc(-c2ncc(CNc3nccc(-c4ccc5ncccc5c4)n3)cc2C)ccn1 [Compound A-170]	3.7
Cc1cc(-c2ncc(CNc3nccc(-c4ccc5ncccc5c4)n3)cc2C#N)ccn1 [Compound A-171]	0.31
Cc1cc(-c2ncc(CNc3nccc(-c4ccc5ncccc5c4)n3)cn2)ccn1 [Compound A-172]	1.7
c1cnc2ccc(-c3ccnc(NCc4ccc(-n5ccnc5)cc4)n3)cc2c1 [Compound A-173]	106
Cc1cc(-c2cnc(CNc3nccc(-c4ccc5ncccc5c4)n3)cn2)ccn1 [Compound A-174]	2.7
COc1cc(CNc2nccc(-c3ccc4ncccc4c3)n2)cnc1-c1ccnc(C)c1 [Compound A-175]	0.74
Cc1cc(-c2ncc(CNc3nccc(-c4ccc5ncccc5n4)c3O)cc2F)ccn1 [Compound A-176, 2-((3-fluoro-2′-methyl-2,4′-bipyridin-5-yl)methylamino)-4-(1,5-naphthyridin-2-yl)pyridin-3-ol]	18
N#Cc1ccc2cc(CNc3nccc(-c4ccc5ncccc5c4)n3)cnc2c1 [Compound A-177]	100
N#Cc1ccc2nc(CNc3nccc(-c4ccc5ncccc5c4)n3)ccc2c1 [Compound A-178]	200
N#Cc1cnc2cc(CNc3nccc(-c4ccc5ncccc5c4)n3)ccc2c1 [Compound A-179, 7-((4-(quinolin-6-yl)pyrimidin-2-ylamino)methyl)quinoline-3-carbonitrile]	500
O=S1(=O)CCN(c2ccc(CNc3nccc(-c4ccc5ncccc5c4)n3)cn2)CC1 [Compound A-180]	300
CS(=O)(=O)CCNc1ccc(CNc2nccc(-c3ccc4ncccc4c3)n2)cn1 [Compound A-181]	350
COc1cc(CNc2nccc(-c3cc4cccnc4cn3)n2)cnc1-c1ccnc(C)c1 [Compound A-182]	0.64
Cc1cc(-c2ncc(CNc3nccc(-c4cc5cccnc5cn4)n3)cc2C#N)ccn1 [Compound A-183, 5-((4-(1,7-naphthyridin-6-yl)pyrimidin-2-ylamino)methyl)-2′-methyl-2,4′-bipyridine-3-carbonitrile]	2.1

Structure (SMILES)	IC50 [nM]
Cc1cc(-c2ncc(CNc3nccc(-c4cc5cccnc5cn4)n3)cc2F)ccn1 [Compound A-184]	1
Cc1cc(-c2ncc(CNc3nnc(-c4ccc5ncccc5c4)s3)cc2C#N)ccn1 [Compound A-185]	4.3
Cc1cc(-c2ccc(CNc3nsc(-c4ccc5ncccc5c4)n3)cc2)ccn1 [Compound A-186]	0.27
Cc1cn(-c2ccc(CNc3nsc(-c4ccc5ncccc5c4)n3)cc2)cn1 [Compound A-187]	51
O=S1(=O)CCN(c2ccc(CNc3nsc(-c4ccc5ncccc5c4)n3)cn2)CC1 [Compound A-188]	4.6
CS(=O)(=O)CCNc1ccc(CNc2nsc(-c3ccc4ncccc4c3)n2)cn1 [Compound A-189]	3000
Cc1cc(-c2ccc(CNc3nsc(-c4ccc5ncccc5c4)n3)cn2)ccn1 [Compound A-190]	0.4
Cc1cc(-c2ncc(CNc3nsc(-c4ccc5ncccc5c4)n3)cc2C)ccn1 [Compound A-191]	0.38
Cc1cc(-c2ncc(CNc3nsc(-c4ccc5ncccc5c4)n3)cc2F)ccn1 [Compound A-192]	0.1
COc1cc(CNc2nsc(-c3ccc4ncccc4c3)n2)cnc1-c1ccnc(C)c1 [Compound A-193]	0.07
Cc1cc(-c2ncc(CNc3nsc(-c4ccc5ncccc5c4)n3)cc2C#N)ccn1 [Compound A-194]	0.09
Cc1cc(-c2ncc(CNc3nsc(-c4cc5cccnc5cn4)n3)cc2F)ccn1 [Compound A-195]	0.84
COc1cc(CNc2nsc(-c3cc4cccnc4cn3)n2)cnc1-c1ccnc(C)c1 [Compound A-196, N-((3-methoxy-2′-methyl-2,4′-bipyridin-5-yl)methyl)-5-(1,7-naphthyridin-6-yl)-1,2,4-thiadiazol-3-amine]	0.78
Cc1cc(-c2ncc(CNc3nsc(-c4cc5cccnc5cn4)n3)cc2C#N)ccn1 [Compound A-197]	0.31
Cc1cc(-c2ncc(CNc3nsc(N4CCc5ncccc5C4)n3)cc2C#N)ccn1 [Compound A-198, 5-((5-(7,8-dihydro-1,6-naphthyridin-6(5H)-yl)-1,2,4-thiadiazol-3-ylamino)methyl)-2′-methyl-2,4′-bipyridine-3-carbonitrile]	0.42
N#Cc1ccc2cc(CNc3nsc(-c4ccc5ncccc5c4)n3)cnc2c1 [Compound A-199, 3-((5-(quinolin-6-yl)-1,2,4-thiadiazol-3-ylamino)methyl)quinoline-7-carbonitrile]	0.17
N#Cc1ccc(NCCNc2nsc(-c3ccc4ncccc4c3)n2)nc1 [Compound A-200]	25
Cc1cc(-c2ncc(CNc3ncnc(N4CCn5nccc5C4)c3F)cc2C#N)ccn1 [Compound A-201]	0.8
Cc1cc(-c2ncc(CNc3nccc(N4CCc5ncccc5C4)c3F)cc2F)ccn1 [Compound A-202, 4-(7,8-dihydro-1,6-naphthyridin-6(5H)-yl)-3-fluoro-N-((3-fluoro-2′-methyl-2,4′-bipyridin-5-yl)methyl)pyridin-2-amine]	0.5
